How the values were obtained:
GluK2 receptor = molecular target: T1, GluK2 receptor (Rattus norvegicus, UniProt P42260); assay: Xenopus oocyte currents, […] ShuBQX-3 in the dark; […] antagonism at […] glutamate, […] at […] glutamate; assay type: cell-based; conditions: read-out: % antagonism at 5 μM (30 μM glutamate)
T1 construct: gene Grik2; GluK2-containing receptors expressed in Xenopus oocytes

[1] = molecular target: T2, GluA1 (GluA1-containing receptors) (Rattus norvegicus, UniProt P19490); assay: Xenopus oocyte currents, […] kainic acid, […] ShuBQX-3 in the dark ([…] antagonism); assay type: cell-based
T2 construct: gene Gria1; GluA1-containing receptors expressed in Xenopus oocytes
T2 sequence (P19490 19-907): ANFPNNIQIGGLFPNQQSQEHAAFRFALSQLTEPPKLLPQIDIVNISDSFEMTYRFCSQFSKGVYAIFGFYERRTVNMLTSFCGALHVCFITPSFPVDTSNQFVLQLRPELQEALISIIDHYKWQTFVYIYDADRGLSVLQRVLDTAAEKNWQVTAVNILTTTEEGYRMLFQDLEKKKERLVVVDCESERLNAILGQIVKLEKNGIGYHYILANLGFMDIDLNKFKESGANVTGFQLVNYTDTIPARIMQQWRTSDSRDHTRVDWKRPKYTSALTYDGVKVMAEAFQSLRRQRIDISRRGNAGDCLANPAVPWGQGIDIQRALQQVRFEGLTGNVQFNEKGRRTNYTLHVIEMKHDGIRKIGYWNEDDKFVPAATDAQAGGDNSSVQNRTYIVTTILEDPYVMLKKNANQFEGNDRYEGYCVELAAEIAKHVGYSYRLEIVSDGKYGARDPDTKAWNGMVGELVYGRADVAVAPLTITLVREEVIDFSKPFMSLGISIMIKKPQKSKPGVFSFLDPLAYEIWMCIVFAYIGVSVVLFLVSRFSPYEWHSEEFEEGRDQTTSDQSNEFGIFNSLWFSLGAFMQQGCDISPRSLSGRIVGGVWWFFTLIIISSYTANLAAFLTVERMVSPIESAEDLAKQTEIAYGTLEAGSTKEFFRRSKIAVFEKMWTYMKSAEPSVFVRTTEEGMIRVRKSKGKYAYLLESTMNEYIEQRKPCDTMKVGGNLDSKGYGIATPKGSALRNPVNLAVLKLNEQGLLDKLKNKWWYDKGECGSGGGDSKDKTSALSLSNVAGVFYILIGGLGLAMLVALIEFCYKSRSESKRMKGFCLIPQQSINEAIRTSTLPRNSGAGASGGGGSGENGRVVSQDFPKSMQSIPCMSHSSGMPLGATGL

T1 sequence (P42260 32-908): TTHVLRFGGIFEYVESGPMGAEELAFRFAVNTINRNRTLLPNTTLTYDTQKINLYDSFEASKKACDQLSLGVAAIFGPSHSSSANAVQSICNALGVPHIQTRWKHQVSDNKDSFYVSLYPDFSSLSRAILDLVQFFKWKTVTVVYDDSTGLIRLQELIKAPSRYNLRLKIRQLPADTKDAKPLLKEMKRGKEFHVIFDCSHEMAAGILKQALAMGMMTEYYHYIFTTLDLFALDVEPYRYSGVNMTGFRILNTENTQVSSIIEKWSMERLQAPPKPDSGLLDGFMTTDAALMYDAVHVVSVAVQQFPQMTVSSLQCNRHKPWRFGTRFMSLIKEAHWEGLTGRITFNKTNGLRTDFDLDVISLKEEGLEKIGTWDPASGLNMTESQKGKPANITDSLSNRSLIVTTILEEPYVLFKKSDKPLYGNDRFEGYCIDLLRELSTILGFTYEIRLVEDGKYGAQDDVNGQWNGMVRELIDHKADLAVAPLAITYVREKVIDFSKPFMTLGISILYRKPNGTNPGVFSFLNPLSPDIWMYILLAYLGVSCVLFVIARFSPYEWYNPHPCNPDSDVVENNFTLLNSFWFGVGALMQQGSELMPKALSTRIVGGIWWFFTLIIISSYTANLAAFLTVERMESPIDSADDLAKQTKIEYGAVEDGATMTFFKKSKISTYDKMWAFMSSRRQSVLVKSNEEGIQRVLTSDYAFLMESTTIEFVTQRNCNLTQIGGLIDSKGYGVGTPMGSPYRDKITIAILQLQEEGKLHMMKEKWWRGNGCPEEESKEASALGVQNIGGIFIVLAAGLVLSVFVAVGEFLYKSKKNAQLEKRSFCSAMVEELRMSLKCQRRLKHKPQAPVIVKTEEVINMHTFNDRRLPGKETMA

inhibition at 5 µM (GluK2 receptor): 49%
inhibition at 5 µM [1]: 85 to 93%
Structure (SMILES): O=c1[nH]c2cc(C(F)(F)F)c(/N=N/c3ccccc3)cc2n(CP(=O)(O)O)c1=O [ShuBQX-3]

From article PMC5358534, “Optical control of AMPA receptors using a photoswitchable quinoxaline-2,3-dione antagonist” (Chemical Science, 2016)
